Assay results: US20230270764A1, “COMPOSITION COMPRISING CANNABINOIDS, TERPENES, AND FLAVONOIDS FOR TREATING DEPRESSION” (priority 2020, published 2023)

Tests used:
Assay type in all cases: in vivo
LPS-injected mice [1] = assay: Porsolt forced swim test in LPS-injected mice; conditions: young-adult male mice
Protocol: Given the mixed effects that CBD administration had in the reversal of LPS-induced depressive-like behavior in young-adult mice, the effects of CBDA by itself, and in combination with CBD, were examined in young-adult (2.5-3.5 months old) female and male mice. Mice were injected (i.p.) with either vehicle, CBDA or CBD and CBDA combination, and 1 hr later with LPS (330 µg/kg). Following injections, the mice were examined according to the methods described in Example 8, apart from the Porsolt forced swim test that replaced the open field test in male mice. In this test, mice were placed in a plastic cylinder (with a height of 20 cm and diameter of 50 cm), filled with 25° C. water. The time spent immobile, defined as the absence of all movement except for motions required to maintain head above water, and the latency for the first immobility episode, were recorded for 6 min, and manually analyzed by an experienced experimenter.

LPS-injected mice [2] = assay: Social exploration test in the LPS-induced model of depression
Description: In a preliminary screening experiment, subjects were 4-6 months-old male C57BL/6 (Jackson Laboratories, USA). Animals were housed 2-3/cage, kept in an air-conditioned room (23+°C) and given ad libitum access to food and water. The mice were kept in a reversed light/dark cycle, with lights off from 7 a.m. to 7 p.m. All experiments were approved by the Hebrew University of Jerusalem Ethics Committee on Animal Care and Use. In preparation for the Sucrose Preference Test, mice were habituated 2-3 times to sucrose drinking, by exposing them overnight to two graduated tubes, one containing water and the other containing sucrose solution (1%, w/v). Water and sucrose consumption were measured, and sucrose preference was computed by dividing the amount of sucrose consumed by drinking (ml sucrose) by the total drinking volume (ml of sucrose + water). One day later, the weight of the mice and the food in their cages was weighed for later analysis of food consumption and body weight changes. […] In this test, the measured locomotor activity reflects not only motor capacity, but particularly the innate motivation for spatial exploration (which increases the distance travelled) and the anxiety level (which reduces the distance travelled, in general, and particularly the distance and time spent in the center of the open field). […] The distance travelled (cm), the velocity of the movement (cm/second), the time spent (seconds), distance travelled (cm) in the center area of the arena, as well as the number of entries from the perimeter area into the center of the arena were automatically measured over a 4-minute period, using EthoVision XT video tracking system and software (Noldus, The Netherlands). […] Social exploration, defined as the time of near contact between the nose of the subject and the juvenile in the small cage was recorded for 4 min, using computerized in-house software. Sucrose preference was assessed, as described above, between 8 to 27 hr post LPS injection. […]

C57BL/6 mice = assay: Porsolt forced swim test; conditions: CLX 10 mg/kg; CBD 5 mg/kg i.p.
Description: All experiments were approved by the Hebrew University of Jerusalem Ethics Committee on Animal Care and Use. […] All data are presented as mean ± SEM.

Structure (SMILES): C=C(C)[C@@H]1CCC(C)=C[C@H]1c1c(O)cc(CCCCC)c(C(=O)O)c1O [CBDA, Cannabidiolic acid]
- time spent in immobility, forced swim test (LPS-injected mice [1]; CBDA 1, 5 mg/kg, CBD 25 and CBDA 1 mg/kg): no significant difference
- latency to the first episode of immobility (LPS-injected mice [1]; printed: CBDA 1 mg/kg): significantly increased

Structure (SMILES): C=C(C)[C@@H]1CCC(C)=C[C@H]1c1c(O)cc(CCCCC)cc1O [CBD, cannabidiol]
- social exploration vs LPS-injected vehicle-treated mice (LPS-injected mice [2]; adult (6-9 months-old) male mice, acute CBD): significantly increased social interest
- social exploration (LPS-injected mice [2]; adult and young adult female mice, acute CBD, saline or LPS): None of these parameters was influenced by treatment with CBD
- LPS-induced reduction in social exploration (LPS-injected mice [2]; young-adult male mice, CBD 30 mg/kg i.p. 3 consecutive days): no effects
- immobility time, each compound by itself (C57BL/6 mice): no significant effects
